According to patent US11548894B2, “Benzamide or benzamine compounds useful as anticancer agents for the treatment of human cancers” (The Board of Regents of the University of Texas System, priority 2015, dated 2023):

Tests used:
Normal astrocytes = assay: ATP viability of normal astrocytes treated with increasing concentrations; type: cell-based, mouse; conditions: increasing concentrations (FIG. 7A)
Experimental: (§1) A luminescence-based Celltiter-Glo® assay was performed to measure cell viability, using ATP levels as the readout. In brief, opaque-walled multiwell plates with Mut6 cells in culture medium (25 μl per well, 384-well plates) were prepared. Control wells containing medium without cells were prepared to obtain a value for background luminescence. Test compounds were added to experimental wells, and incubated according to culture protocol. The plate and its contents were incubated at 37° C., 5% […] for 96 hours. An ATP standard curve was generated immediately prior to adding the CellTiter-Glo® Reagent. A volume of CellTiter-Glo® Reagent equal to the volume of cell culture medium present in each well (25 μl of reagent to 25 μl of medium containing cells for a 384-well plate) was added. The contents were mixed for 2 minutes on an orbital shaker to induce cell lysis. The plate was allowed to incubate at room temperature for 10 minutes to stabilize the luminescent signal and luminescence recorded. (e.g. GloMax®, Lumistar, SPECTROstar, PHERAstar FS).
(§2) Normal astrocytes, Mut6 cells and mouse embryonic fibroblasts were treated with increasing concentrations of compound 4C12. […] Normal astrocytes and MEFs were unaffected by compound 4C12.

SREBP2 = assay: Western blot of SREBP proteins in Mut6 cells; type: cell-based, mouse; conditions: 7 hr, 13 hr and 23 hr
Experimental: (§3) In FIG. 13(a)-(e) Mut6 cells were treated with compound 4C12 for 2, 9, 16, 24, and 48 hr, respectively, and their cholesterol gene profile compared to a DMSO control. […] (f) Western blot. Mut6 cells were treated with vehicle only (−) or with compound 4C12 (+) for 7 hr, 13 hr and 23 hr. Cells were collected, lysed in SDS buffer, subjected to SDS PAGE, and cell proteins transferred to a membrane by a standard protocol.

Srebp1 target genes = assay: cholesterol gene profile in Mut6 cells, Srebp1 targets; type: cell-based, mouse; conditions: Mut6 cells, 2, 9, 16, 24 and 48 hr vs DMSO
Experimental: as §3

[1] = system: Srebp2 target genes in Astrocytes; assay: relative mRNA level of cholesterol biosynthesis pathway target genes in astrocytes; type: cell-based, mouse; conditions: vs dmso (FIG. 16)
Source text: (§4) FIG. 16 is a bar graph of relative mRNA level for cholesterol biosynthesis pathway target genes Hmgcs, Hmgcr, FPPS, LDLR; and SREBP1c in mouse embryo fibroblasts (left) and astrocytes (right) treated with compound 4C12 or dmso (negative control).

Mut6 cells [2] = assay: cholesterol and triglyceride level (pg/cell) in treated cells; type: cell-based, mouse
Experimental: (§5) FIG. 12A is a bar graph showing cholesterol (pg/cell), and triglyceride (pg/cell) levels in Mut6 cells treated with compound 4C12 for 24 hours and 48 hours, versus a negative control (vehicle only). […] Mut6 cells were treated with compound 4C12 for 24 hours and then mRNA levels for Hydroxymethylglutaryl-CoA synthase(Hmgcs); 3-hydroxy-3-methylglutaryl-coenzyme A reductase (Hmgcr); acetoacetyl-CoA synthetase (AACS); Delta(24)-sterol reductase (Dhcr24); 7-dehydrocholesterol reductase (Dhcr7), Sterol C5-desaturase (Sc5d); Squalene synthase (SS); and farnesyl pyrophosphate (FPP) synthase (FPPS) were determined.
FIG. 17 compares cholesterol level (pg/cell) (Left) and triglyceride level (pg/cell) (Right) in Mut6 cells and in MEF cells treated with compound 4C12 for 24 hours and 48 hours to a negative control (vehicle).

Mut6 cells [3] = assay: cell-based wash-out time course with ATP assay at 96 hours (FIG. 8); design: species or system mouse
Experimental: FIGS. 8A-B comprising FIG. 8A and FIG. 8B show the identification of molecular changes between 6 hr and 24 hr time points. […] Cells were plated 48 hours before treatment with test compounds Compound 1, Compound 2 and 4C12, and a negative control. Cultures then were treated with the test compound. The media was removed and cells washed twice. Fresh media was added without compound. Data points were 6 hr, 22 hr, 33 hr, 51 hr, 71 hr and continuous. Molecular changes were identified between the 6 hr and 24 hr time points. An ATP assay was performed at 96 hours. On day 2, Cells treated with 4C12 were round-shaped. […] On day 4, 10-20% of the cells were apoptotic. By day 5, 80-90% of the cells were apoptotic.

Mut6 cells (TD-NSC) = assay: luminescence-based Celltiter-Glo cell viability assay (ATP levels) on Mut6 tumor derived neuronal stem cells; design: species or system mouse
Summary of the method: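 Primary tumor-derived neural stem cells from pooled Mut6 (p53/Pten/Nf1 conditional knockout) GBM tumors, serum-free with defined growth factors. Compound exposure 96 h at 37° C., 5% oxygen; viability by CellTiter-Glo ATP luminescence with cell-free background wells, giving IC50 curves.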

[4] = system: mouse embryonic fibroblasts (MEFs); assay: ATP viability of mouse embryonic fibroblasts treated with increasing concentrations; type: cell-based; conditions: increasing concentrations (FIG. 7A)
Experimental: as §1, §2

[5] = system: Srebp2 target genes in MEFs; assay: relative mRNA level of cholesterol biosynthesis pathway target genes in MEFs; type: cell-based, mouse; conditions: vs dmso (FIG. 16)
Source text: as §4

[6] = system: cholesterol biosynthesis pathway (Srebp2 target genes); assay: microarray and mRNA levels of cholesterol synthesis genes in Mut6 cells; type: cell-based, mouse
Experimental: Microarray analysis was conducted to identify overrepresented pathways associated with treatment with compound 4C12 for 48 hr.
as §5, §3

[7] = Mut6 cells, 24 hours and 48 hours

`CCN1CCCC1CNC(=O)c1ccc(Sc2ccc(F)cc2)c([N+](=O)[O-])c1` (stereo not drawn) [4C12, N-((1-ethylpyrrolidin-2-yl)methyl)-4-((4-fluorophenyl)thio)-3-nitrobenzamide] was tested, and the “effect on viability of normal astrocytes” value (Normal astrocytes) was “unaffected”, the “SREBP2 protein (Western blot)” value (SREBP2) was “effective to decrease SREBP2 protein” and the “effect on Srebp1 target genes” value (Srebp1 target genes) was “not Srebp1 target genes”. The “Srebp2 target genes mRNA in Astrocytes” value [1] was “not decreased”, the “specificity of cholesterol decrease” value (Mut6 cells [2]; Mut6 cells vs MEF cells, 24 and 48 hours (FIG. 17)) was “specific to Mut6 tumor cells” and the “cholesterol (pg/cell)” value (Mut6 cells [2]; [7]) was “decreases”. The “triglyceride (pg/cell)” value (Mut6 cells [2]; [7]) was “increases”, the cell shape (Mut6 cells [3]; day 2) was “round-shaped” and the cell cycle state (Mut6 cells [3]; day 3) was “arrested in G2”. For the same molecule, the apoptotic cells (Mut6 cells [3]; day 4) was 10-20%, the apoptotic cells (Mut6 cells [3]; day 5) was 80-90% and the “relative ATP activity versus time” value (Mut6 cells [3]; relative to the control (FIG. 8B)) was “reduced ATP activity as a function of time”. The EC50 (Mut6 cells (TD-NSC); Mus musculus, relative ATP activity versus concentration (FIG. 7A), read-out: ED50 against Mut6 cells) was 50 nM, the “compound-induced cell-death with addition of cholesterol” value (Mut6 cells (TD-NSC); Mut6 cells (FIG. 15(b))) was “inhibits” and the “sensitivity after knock-down of Insig1/Insig2” value (Mut6 cells (TD-NSC); Mut6 cells (FIG. 15(c))) was “less sensitive”. The “live cells (%)” value (Mut6 cells (TD-NSC); Mut6 tumor cells viable after 96 hours (FIG. 7C)) was 50%, the “effect on viability of MEFs” value [4] was “unaffected” and the “Srebp2 target genes mRNA in MEFs” value [5] was “not decreased”. For the same molecule, the “effect on Srebp2 target genes” value ([6]; Mut6 cells, 2, 9, 16, 24 and 48 hr vs DMSO) was “inhibits Srebp2 target genes”, the “relative mRNA of genes for cholesterol synthesis enzymes” value ([6]; Mut6 cells, 24 hours) was “down-regulated” and the “overrepresented pathways by microarray” value ([6]; treatment for 48 hr) was “deregulates the cholesterol biosynthesis pathway”.
